Here are results for 4 compounds from patent US4521598A, “3-Azidocephalosporins” (priority 1983, dated 1985).

As a reminder, the zone of inhibition is the size of the clear area around the sample on an inoculated plate.

For experiment [1], the system named is Escherichia coli. The experiment in a line: Agar dilution method, MIC. The experiment is classed as cell-based.
The next experiment relates to Enterobacter aerogenes. The experiment in a line: Agar dilution method, MIC. Type of experiment: cell-based. (In general: In agar dilution the substance is mixed into plates at graded concentrations.)
Another experiment relates to Streptococcus sp. D. The experiment in a line: Agar dilution method, MIC. The experiment is classed as cell-based.
A further experiment concerns Pseudomonas solanacearum. The experiment in a line: microbe, parasite or virus in culture. Type of experiment: cell-based. The conditions noted are these: Ralstonia solanacearum; for zone of inhibition at 3000 µg/mL: read-out: Zone of Inhibition (mm. diam.).
The test system of a further experiment is Pseudomonas. The experiment in a line: Agar dilution method, MIC. Type of experiment: cell-based. The conditions noted are these: strains of Pseudomonas.
Experiment [2] concerns Staphylococcus aureus. The experiment in a line: Agar dilution method, MIC. Type of experiment: cell-based.
The test system of experiment [3] is Bacillus stearothyermophilus. The experiment in a line: Disc plate assay, zone of inhibition. Type of experiment: cell-based. The conditions noted are these: for zone of inhibition at 3000 µg/mL: read-out: Zone of Inhibition (mm. diam.).
Another experiment relates to Proteus. The experiment in a line: Agar dilution method, MIC. Type of experiment: cell-based. Particulars: strains of Proteus.
The next experiment deals with Candida albicans. The experiment in a line: Disc plate assay, zone of inhibition. The experiment is classed as cell-based. Here is the method:
(§1) The 7-acylamino-3-azido-3-cephem-4-carboxylic acids and the salts thereof inhibit the growth of bacteria pathogenic to man and animals. […] For example, 7β-(2-thienylacetamido)-3-azido-3-cephem-4-carboxylic acid inhibited the growth of various organisms as shown in the following Table 1.
(§2) ^1 concentration 1 mg./ml.
(§3) The 3-amino-2-substituted-3-cephem compounds (formula 5) as the free acids or salts thereof and the bicyclo nonenes (formula 6) as the free acids or salts thereof are antibacterial agents which inhibit the growth of bacteria pathogenic to man and animals. In Table 3 below the in vitro antibacterial properties of the three isomeric products represented by formulae 5 and 6 obtained in the disc-plate method is tabulated.

Experiment [4] relates to Trichophyton mentagrophytes. The experiment in a line: Disc plate assay, zone of inhibition. The experiment is classed as cell-based. As for the experimental part: as §1, §2, §3
In a further experiment the test system is Bacillus subtilis. The experiment in a line: Disc plate assay, zone of inhibition. Type of experiment: cell-based. Particulars: for zone of inhibition at 3000 µg/mL: read-out: Zone of Inhibition (mm. diam.).
The test system of a further experiment is Serratia. The experiment in a line: Agar dilution method, MIC. Particulars: strains of Serratia. Type of experiment: cell-based.
The test system of experiment [5] is Streptococcus epidermidis. The experiment in a line: Agar dilution method, MIC. Type of experiment: cell-based.
Another experiment concerns Streptococcus pneumoniae. The experiment in a line: Agar dilution method, MIC. Particulars: strain Park. Type of experiment: cell-based.
The next experiment concerns Micrococcus luteus. The experiment in a line: Disc plate assay, zone of inhibition. Type of experiment: cell-based. The conditions noted are these: for zone of inhibition at 3000 µg/mL: read-out: Zone of Inhibition (mm. diam.).
For another experiment, the system named is Salmonella typhi. The experiment in a line: Agar dilution method, MIC.
In the next experiment the test system is Proteus vulgaris. The experiment in a line: Disc plate assay, zone of inhibition. Type of experiment: cell-based.
For the next experiment, the system named is Klebsiella pneumoniae. The experiment in a line: Agar dilution method, MIC. Type of experiment: cell-based.
A further experiment has as its system Streptococcus pyogenes. The experiment in a line: Agar dilution method, MIC. Type of experiment: cell-based. Particulars: strain C203.
Experiment [6] relates to Escherichia coli. The experiment in a line: Disc plate assay, zone of inhibition. The experiment is classed as cell-based. Particulars: for zone of inhibition at 3000 µg/mL: read-out: Zone of Inhibition (mm. diam.).
In experiment [7] the test system is Staphylococcus aureus. The experiment in a line: Disc plate assay, zone of inhibition. The conditions noted are these: for zone of inhibition at 3000 µg/mL: read-out: Zone of Inhibition (mm. diam.). The experiment is classed as cell-based.
In a further experiment the test system is Haemophilus influenzae. The experiment in a line: Agar dilution method, MIC. The experiment is classed as cell-based.
The next experiment relates to Enterobacter cloacae. The experiment in a line: Agar dilution method, MIC. The experiment is classed as cell-based.
A further experiment deals with Pseudomonas aeruginosa. The experiment in a line: Disc plate assay, zone of inhibition. Type of experiment: cell-based. Particulars: concentration 1 mg./ml. As for the experimental part: as §1, §2
Experiment [8] relates to Saccharomyces postorianus. The experiment in a line: Disc plate assay, zone of inhibition. The experiment is classed as cell-based. The conditions noted are these: concentration 1 mg./ml. Here is the method: as §1, §2
The next experiment concerns Serratia marcescens. The experiment in a line: Disc plate assay, zone of inhibition. The experiment is classed as cell-based. The conditions noted are these: concentration 1 mg./ml. Here is the method: as §1, §2
The test system of another experiment is Salmonella gallinarum. The experiment in a line: Disc plate assay, zone of inhibition. The experiment is classed as cell-based. Particulars: Salmonella enterica, concentration 1 mg./ml. As for the experimental part:
as §1, §2

Structures are written as SMILES. Values after ≈ are worked out from the molar mass of the structure shown. Where a name gives a salt, the structure may show the parent alone. Read-outs that look alike come from different tables or passages of the source. A value given as a limit tells only on which side of the number the result lay.

As to `[N-]=[N+]=NC1=C(C(=O)O)N2C(=O)[C@@H](NC(=O)Cc3cccs3)[C@H]2SC1` [7β-(2-Thienylacetamido)-3-azido-3-cephem-4-carboxylic acid], the MIC in the experiment on Escherichia coli [1] is 128 µg/mL (≈ 350 µM); in the experiment on Escherichia coli [1] (strain EC14, read-out: MIC), 16 µg/mL (≈ 43.8 µM); with Escherichia coli [1] (strain N10, read-out: MIC), 64 µg/mL (≈ 175 µM); in the experiment on Enterobacter aerogenes (Klebsiella aerogenes, strain C32, read-out: MIC), 128 µg/mL (≈ 350 µM); against Enterobacter aerogenes (strain EB17), 128 µg/mL (≈ 350 µM); with Streptococcus sp. D (Streptococcus, strain X66, read-out: MIC) it was 128 µg/mL (≈ 350 µM). Moreover, the MIC against Streptococcus sp. D (strain 2041) is 128 µg/mL (≈ 350 µM); in the experiment on Pseudomonas, no less than 128 µg/mL; in the experiment on Staphylococcus aureus [2] (strain S13E) it was 64 µg/mL (≈ 175 µM); with Staphylococcus aureus [2] (strain V41, read-out: MIC) it was 64 µg/mL (≈ 175 µM); in the experiment with Staphylococcus aureus [2] (strain X1.1, read-out: MIC) it was 8 µg/mL (≈ 21.9 µM); in the experiment with Staphylococcus aureus [2] (strain X400, read-out: MIC) it was 128 µg/mL (≈ 350 µM). For the same compound, the MIC against Proteus is no less than 128 µg/mL; in the experiment with Serratia it was no less than 128 µg/mL; in experiment [5] (strain 222), 4 µg/mL (≈ 10.9 µM); in experiment [5] (strain EP11) it was 16 µg/mL (≈ 43.8 µM); against Streptococcus pneumoniae it was 0.25 µg/mL (≈ 0.684 µM); in the experiment on Salmonella typhi (Salmonella enterica, TYPHI), 16 µg/mL (≈ 43.8 µM). Moreover, the MIC with Salmonella typhi (strain 1335) worked out at 16 µg/mL (≈ 43.8 µM); in the experiment with Klebsiella pneumoniae it was 128 µg/mL (≈ 350 µM); with Klebsiella pneumoniae (strain X26, read-out: MIC) it was 4 µg/mL (≈ 10.9 µM); with Klebsiella pneumoniae (strain X68, read-out: MIC) it was 16 µg/mL (≈ 43.8 µM); against Streptococcus pyogenes, 0.5 µg/mL (≈ 1.37 µM); against Haemophilus influenzae (strain 76), 4 µg/mL (≈ 10.9 µM). The MIC stood at 16 µg/mL (≈ 43.8 µM) in the experiment on Haemophilus influenzae (strain C.L.); 128 µg/mL (≈ 350 µM) in the experiment on Enterobacter cloacae (Enterobacter cloacae, strain EB5, read-out: MIC); 128 µg/mL (≈ 350 µM) against Enterobacter cloacae (strain 265A). The zone of inhibition at 1000 µg/mL in the experiment with Pseudomonas solanacearum is 29 mm; in experiment [3] (Bacillus, concentration 1 mg./ml.), 20 mm; in the experiment with Bacillus subtilis (Bacillus subtilis, concentration 1 mg./ml.) it was 30 mm; in the experiment with Micrococcus luteus (Micrococcus luteus, concentration 1 mg./ml.), 23 mm; with Proteus vulgaris (Proteus vulgaris, concentration 1 mg./ml.) it was 25 mm; in the experiment with Escherichia coli [6] (Escherichia coli, concentration 1 mg./ml.) it was 21 mm. The zone of inhibition at 1000 µg/mL is 30 mm with Staphylococcus aureus [7] (Staphylococcus aureus, concentration 1 mg./ml.) and 19 mm in the experiment on Salmonella gallinarum. In addition, the “detectable zone of inhibition” value (in the experiment with Candida albicans (concentration 1 mg./ml.); in experiment [4] (concentration 1 mg./ml.); in the experiment with Pseudomonas aeruginosa; in experiment [8]; in the experiment with Serratia marcescens) was “failed to produce a detectable zone of inhibition” in each case.
As for `COC1=N[C@@H](C(=O)[O-])N2C(=O)[C@H](NC(=O)Cc3cccs3)[C@@H]2SC1.[Na+]` [Compound A, [2R-(2α,7α,8β)],-4-Methoxy-9-oxo-8-[(2-thienylacetyl)-amino]-6-thia-1,3-diazabicyclo[5.2.0]non-3-ene-2-carboxylic acid sodium salt], the “Zone of Inhibition (mm. diam.)” value is given as 11 mm in experiment [3] (Concentration: 3 mg./ml.); “tr” in [4] (Concentration: 3 mg./ml.); 15 mm in the experiment with Bacillus subtilis (Concentration: 3 mg./ml.); 10 mm in the experiment with Micrococcus luteus (Concentration: 3 mg./ml.); 12 mm in the experiment on Escherichia coli [6] (Concentration: 3 mg./ml.); 18 mm with Staphylococcus aureus [7] (Concentration: 3 mg./ml.).
For `COC1=NCS[C@@H]2[C@H](NC(=O)Cc3cccs3)C(=O)N2[C@H]1C(=O)O` [Compound B, [2R-(2α,7α,8β)],-3-Methoxy-9-oxo-8-[(2-thienylacetyl)-amino]-6-thia-1,4-diaza[5.2.0]non-3-ene-2-carboxylic acid sodium salt], the zone of inhibition at 3000 µg/mL in the experiment with Pseudomonas solanacearum was 12 mm; in experiment [3] (Bacillus, Concentration: 3 mg./ml.), 34 mm; with Candida albicans (Candida albicans, Concentration: 3 mg./ml., read-out: Zone of Inhibition (mm. diam.)), 13 mm; with Bacillus subtilis (Bacillus subtilis, Concentration: 3 mg./ml.), 27 mm; in the experiment on Micrococcus luteus (Micrococcus luteus, Concentration: 3 mg./ml.), 25 mm; in the experiment with Escherichia coli [6] (Escherichia coli, Concentration: 3 mg./ml.), 25 mm. Moreover, the zone of inhibition at 3000 µg/mL in the experiment on Staphylococcus aureus [7] (Staphylococcus aureus, Concentration: 3 mg./ml.) stood at 29 mm.
For the compound `COC1S[C@@H]2[C@H](NC(=O)Cc3cccs3)C(=O)N2C(C(=O)[O-])=C1N.[Na+]` (stereo partly drawn) [Compound C, Sodium 7β-[(2-thienylacetyl)amino]-2-methoxy-3-amino-3-cephem-4-carboxylate], the zone of inhibition at 3000 µg/mL in the experiment on Pseudomonas solanacearum was determined as 11 mm; in experiment [3] (Bacillus), 36 mm; with Bacillus subtilis (Bacillus subtilis), 30 mm; in the experiment on Micrococcus luteus (Micrococcus luteus), 24 mm; with Escherichia coli [6] (Escherichia coli) it was 30 mm; with Staphylococcus aureus [7] (Staphylococcus aureus), 29 mm. Further, the “Zone of Inhibition (mm. diam.)” value in the experiment on Proteus vulgaris (Concentration: 3 mg./ml.) is “tr”.
